In brackets after ≈: the same amount, converted by molar mass. Like-named read-outs stand apart in the source and are kept apart here.
How the values were obtained:
Assay type in all cases: cell-based
[1] = system: Escherichia coli ATCC 25922; test: MIC by broth microdilution (CAMHB, NCCLS); details: code C: Escherichia coli ATCC 25922
Procedure: (§1) MIC values for non-anaerobes were obtained by broth microdilution using CAMHB (BBL) according to NCCLS guidelines (National Committee for Clinical Laboratory Standards. Methods for dilution antimicrobial susceptibility tests for bacteria that grow aerobically, 5th ed. Approved standard M7-A6. NCCLS, Wayne, Pa., 2003). Drugs were dissolved in DMSO prior to dispensing into 96-well microtitre plates; the concentration of DMSO in assay wells never exceeded 2% (v/v). CAMHB was supplemented with 5% (v/v) horse serum (Sigma, cat. no. H-1270) in lieu of laked horse blood for cultivation of Streptococcus pneumoniae, and with 5% (v/v) Fildes enrichment (BBL, cat. no. 220810) supernate in lieu of Haemophilus Test Medium and additives for cultivation of Haemophilus influenzae (Pankuch G A, Hoellman D B, Lin G, Bajaksouzian S, Jacobs M R, Appelbaum P C. Activity of HMR 3647 compared to those of five agents against Haemophilus influenzae and Moraxella catarrhalis by MIC determination and time-kill assay. Antimicrob. Agents Chemother. November 1998; 42(11): 3032-4). Activities expressed as the minimal inhibitory concentrations (MICs) (μg/ml) are given in the following Table 3, and the microorganisms used for testing are listed in Table 2 below.

[2] = system: Staphylococcus aureus 1086; test: MIC by broth microdilution (CAMHB, NCCLS); details: code B: Staphylococcus aureus 1086
Procedure: as §1

[3] = system: Staphylococcus aureus ATCC 29213; test: MIC by broth microdilution (CAMHB, NCCLS); details: code A: Staphylococcus aureus ATCC 29213
Procedure: as §1

[4] = system: Streptococcus pneumoniae 1/1; test: MIC by broth microdilution (CAMHB + 5% horse serum, NCCLS); details: code D: Streptococcus pneumoniae 1/1
Procedure: as §1

[5] = system: Streptococcus pneumoniae SL199T; test: as above; details: code E: Streptococcus pneumoniae SL199T
Procedure: as §1

[6] = system: Streptococcus pneumoniae Tupelo; test: as above; details: code F: Streptococcus pneumoniae Tupelo
Procedure: as §1

[7] = system: Haemophilus influenzae 12214; test: MIC by broth microdilution (CAMHB + 5% Fildes enrichment, NCCLS)
Procedure: as §1

[8] = system: Haemophilus influenzae QK50; test: as above
Procedure: as §1

[9] = system: Propionibacterium acnes EG7NS; test: MIC by anaerobic broth microdilution (WCB, NCCLS); details: 48 h
Procedure: (§2) MIC values towards strains of propionibacteria were obtained by broth microdilution using WCB (Anaerobe Broth MIC, Difco) according to NCCLS guidelines (National Committee for Clinical Laboratory Standards. Methods for anti-microbial susceptibility testing of anaerobic bacteria, 5th ed.; approved standard. NCCLS publication no. M11-A5. NCCLS, Wayne, Pa., 2001). Microtitre plates were loaded into 7-L GENbox anaerobic incubation jars (BioMérieux, cat. no. 96 128) fitted with anaerobic atmosphere generators (BioMérieux, cat. no. 96 124) and a Dry Anaerobic Indicator Strip (BBL, cat. no. 271051). Under these conditions, an O2 concentration <0.1% was achieved by 2.5 h, and a CO2 concentration >15% by 24 h. MIC values were read after incubation at 35-37° C. for 48 h (Table 3).

[10] = system: Propionibacterium acnes SW101T; test: MIC by anaerobic broth microdilution (WCB, NCCLS); details: code K: Propionibacterium acnes SW101T, 35-37° C., 48 h
Procedure: as §2

[11] = system: Human neutrophils; test: Modulation of neutrophil elastase production; details: test compound 50 μM; fMLP 0.1 μM, cytochalasin B 5 mg/L; blood from 3 donors
Description: The neutrophil granulocyte is a key element of the inflammatory process. The neutrophils migrate to the site of inflammation and can be activated to release toxic products, including proteolytic enzymes such as elastase. […] Elastase is a major secreted product of activated neutrophils and is a major contributor to the destruction of tissue in inflammatory disease. Several bioassays based on the repression of secretion of elastase, have been described and used for the detection of anti-inflammatory products (Johansson, […]. Nat. Prod. 65: 32-41). […] The neutrophils are activated by addition of the bacterial product N-formyl methionyl-leucyl-phenylalanine (fMLP) and cytochalasin B, a stimulator of secretion. The amount of elastase secreted is determined by measuring the reaction of elastase with the chromogenic substrate succinyl-alanyl-alanyl-valyl-nitroanilide ([…]), which generates 4-nitroaniline after cleavage by elastase. […] Human neutrophils are isolated by applying whole heparinized blood to a Histopaque column and collecting the granulocytes by centrifugation. […] The total volume of the reaction mixture is 0.8 mL and concentrations specified are the final concentrations in the mixture. […] Neutrophil preparations from blood from 3 different donors were used in parallel. All samples were measured in duplicate. Results are given as % repression of activation of neutrophils in the following Table 5.

[12] = code G: Haemophilus influenzae 12214, read-out: MIC
[13] = code H: Haemophilus influenzae QK50, read-out: MIC
[14] = Cutibacterium acnes, read-out: MIC
[15] = Cutibacterium acnes, code I: Propionibacterium acnes EG7NS, anaerobic, 35-37° C., read-out: MIC
[16] = code G: Haemophilus influenzae 12214
[17] = code H: Haemophilus influenzae QK50
[18] = code I: Propionibacterium acnes EG7NS, anaerobic, 35-37° C.

| SMILES | MIC [1] | MIC [2] | MIC [3] [µg/mL] | MIC [4] | MIC [5] [µg/mL] | MIC [6] [µg/mL] | MIC [7, 16] [µg/mL] | MIC [8, 17] [µg/mL] | MIC [9, 18] | MIC [10] [µg/mL] | MIC ([1]; ATCC25922, read-out: MIC) [µg/mL] | MIC ([2]; read-out: MIC) [µg/mL] | MIC ([3]; ATCC29213, read-out: MIC) [µg/mL] | MIC ([4]; read-out: MIC) [µg/mL] | MIC ([5]; read-out: MIC) [µg/mL] | MIC ([6]; read-out: MIC) [µg/mL] | MIC [7, 12] [µg/mL] | MIC [8, 13] [µg/mL] | MIC [10, 14] [µg/mL] | Average repression of activation (%) [11] [%] | other results |
| --- | --- | --- | --- | --- | --- | --- | --- | --- | --- | --- | --- | --- | --- | --- | --- | --- | --- | --- | --- | --- | --- |
| CC[C@H]1OC(=O)[C@H](C)[C@@H](O[C@H]2C[C@@](C)(OC)[C@@H](O)[C@H](C)O2)[C@H](C)[C@@H](O[C@@H]2O[C@H](C)C[C@H](N(C)C)[C@H]2O)[C@](C)(O)C[C@@H](C)C(=O)[C@H](C)[C@@H](O)[C@]1(C)O [Erythromycin, reference compound] | – | – | – | – | – | – | – | – | – | – | > 32 | > 32 | 0.5 (≈ 0.681 µM) | ≤ 0.06 | > 32 | 8 | 4 | 2 | > 32 | 5 ± 0.30 | MIC ([9]; Cutibacterium acnes, EG7NS): 0.125 µg/mL (≈ 0.17 µM) |
| CC[C@H]1OC(=O)[C@H](C)[C@@H](O[C@H]2C[C@@](C)(OC)[C@@H](O)[C@H](C)O2)[C@H](C)[C@@H](O[C@@H]2O[C@H](C)C[C@H](N(C)C)[C@H]2O)[C@](C)(OC)C[C@@H](C)C(=O)[C@H](C)[C@H]2[C@H](SCCn3cnc4c(N)ncnc43)C(=O)O[C@@]21C [Example 1, (3S, 3aR, 4R, 6R, 8R, 9R, 10S, 11S, 12R, 15R, 15aS)-3-[[2-[6-amino-9H-purin-9-yl]ethyl]thio]-11-[[2,6-dideoxy-3-C-methyl-3-O-methyl-α-L-ribo-hexopyranosyl]oxy]-15-ethyldecahydro-8-methoxy-4,6,8,10,12,15a-hexamethyl-9-[[3,4,6-trideoxy-3-(dimethylamino)-β-D-xylo-hexopyranosyl]oxy]-2H-furo [2,3-c]oxacyclotetradecin-2,5,13 (3H,6H)-trione] | – | – | – | – | – | – | – | – | – | – | ≥ 32 | ≥ 32 | 1 (≈ 1.04 µM) | ≤ 0.06 | 0.125 | 0.5 | 1 | 0.5 | 1 (≈ 1.04 µM) | 19 ± 0.6 | MIC [9, 15]: ≤ 0.06 µg/mL |
| CC[C@H]1OC(=O)[C@H](C)[C@@H](O[C@H]2C[C@@](C)(OC)[C@@H](O)[C@H](C)O2)[C@H](C)[C@@H](O[C@@H]2O[C@H](C)C[C@H](N(C)C)[C@H]2O)[C@](C)(OC)C[C@@H](C)C(=O)[C@H](C)[C@H]2[C@H](SCCn3cnc4cccnc43)C(=O)O[C@@]21C [Example 4, (3S, 3aR, 4R, 6R, 8R, 9R, 10S, 11S, 12R, 15R, 15aS)-11-[[2,6-dideoxy-3-C-methyl-3-O-methyl-α-L-ribo-hexopyranosyl]oxy]-15-ethyldecahydro-8-methoxy-4,6,8,10,12,15a-hexamethyl-3-[[2-[3H-imidazo[4,5-b]pyridin-3-yl]ethyl]thio]-9-[[3,4,6-trideoxy-3-(dimethylamino)-β-D-xylo-hexopyranosyl]oxy]-2H-furo [2,3-c] oxacyclotetradecin-2,5,13 (3H,6H)-trione] | – | – | – | – | – | – | – | – | – | – | 32 (≈ 33.7 µM) | ≥ 32 | 1 (≈ 1.05 µM) | ≤ 0.06 | 0.5 | 0.5 | – | – | 4 (≈ 4.21 µM) | 31 ± 2.4 | MIC ([7]; Haemophilus influenzae, 12214): 2 µg/mL; MIC ([8]; Haemophilus influenzae, QK50): 2 µg/mL; MIC [9, 15]: 0.125 µg/mL (≈ 0.132 µM) |
| CC[C@H]1OC(=O)[C@H](C)[C@@H](O[C@H]2C[C@@](C)(OC)[C@@H](O)[C@H](C)O2)[C@H](C)[C@@H](O[C@@H]2O[C@H](C)C[C@H](N(C)C)[C@H]2O)[C@](C)(OC)C[C@@H](C)C(=O)[C@H](C)[C@H]2[C@H](SCCn3cncn3)C(=O)O[C@@]21C [Example 18] | 32 µg/mL (≈ 35.6 µM) | >=32 μg/ml | 1 (≈ 1.11 µM) | <=0.06 μg/ml | 2 | 4 | 2 | 2 | <=0.06 μg/ml | >32 | – | – | – | – | – | – | – | – | – | – | – |

Second part, led by results:

| MIC [1] | MIC [2] | MIC [3] [µg/mL] | MIC [4] | MIC [5] [µg/mL] | MIC [6] [µg/mL] | MIC [7, 16] [µg/mL] | MIC [8, 17] [µg/mL] | MIC [9, 18] | MIC [10] [µg/mL] | SMILES | MIC ([1]; ATCC25922, read-out: MIC) [µg/mL] | MIC ([2]; read-out: MIC) [µg/mL] | MIC ([3]; ATCC29213, read-out: MIC) [µg/mL] | MIC ([4]; read-out: MIC) [µg/mL] | MIC ([5]; read-out: MIC) [µg/mL] | MIC ([6]; read-out: MIC) [µg/mL] | MIC [7, 12] [µg/mL] | MIC [8, 13] [µg/mL] | MIC [10, 14] [µg/mL] | Average repression of activation (%) [11] [%] | other results |
| --- | --- | --- | --- | --- | --- | --- | --- | --- | --- | --- | --- | --- | --- | --- | --- | --- | --- | --- | --- | --- | --- |
| >=32 μg/ml | >=32 μg/ml | 8 (≈ 8.16 µM) | <=0.06 μg/ml | 0.125 | 1 | 2 | 2 | <=0.06 μg/ml | 2 (≈ 2.04 µM) | CC[C@H]1OC(=O)[C@H](C)[C@@H](O[C@H]2C[C@@](C)(OC)[C@@H](O)[C@H](C)O2)[C@H](C)[C@@H](O[C@@H]2O[C@H](C)C[C@H](N(C)C)[C@H]2O)[C@](C)(OC)C[C@@H](C)C(=O)[C@H](C)[C@H]2[C@H](SCCn3cnc4c(N)nc(N)nc43)C(=O)O[C@@]21C [Example 11] | – | – | – | – | – | – | – | – | – | 20 ± 0.97 | – |
| 32 µg/mL (≈ 33.1 µM) | >32 µg/mL | 1 (≈ 1.03 µM) | <=0.06 μg/ml | 4 | 4 | 4 | 4 | <=0.06 μg/ml | >32 | CC[C@H]1OC(=O)[C@H](C)[C@@H](O[C@H]2C[C@@](C)(OC)[C@@H](O)[C@H](C)O2)[C@H](C)[C@@H](O[C@@H]2O[C@H](C)C[C@H](N(C)C)[C@H]2O)[C@](C)(OC)C[C@@H](C)C(=O)[C@H](C)[C@H]2[C@H](SCC(=O)c3ccc4c(c3)OCO4)C(=O)O[C@@]21C [Example 29] | – | – | – | – | – | – | – | – | – | – | – |
